Values joined by “and” are separate entries in the source; they are usually repeats but may differ in a detail not shown here. Identical values can stand only once.
Test system: 653999-131-R-J2-PDC complex spheroids, growth % test/control
Assay: Anticancer human tumor 653999-131-R-J2-PDC patient-derived lung adenocarcinoma cell line growth inhibition [AhR]
Settings: for viability, T/C: stronger effect = lower value
In short: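 Agents were dosed in half-log steps down from roughly clinical Cmax, or from 10 microM where Cmax was unknown, alone and with AhR antagonists. Read-out: percent test/control growth of tumor spheroids containing HUVEC and MSC stromal cells.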

[1] = curve of first compound, second compound 0.1 µM
[2] = curve of first compound, second compound 0.316 µM
[3] = curve of first compound, second compound 1 µM
[4] = curve of first compound, second compound 3.16 µM
[5] = curve of first compound, second compound 10 µM
[6] = second compound 0.1 µM, first compound 0.0316 µM
[7] = second compound 0.1 µM, first compound 0.1 µM
[8] = second compound 0.316 µM, first compound 0.0316 µM
[9] = second compound 0.316 µM, first compound 0.1 µM
[10] = second compound 1 µM, first compound 0.0316 µM
[11] = second compound 1 µM, first compound 0.1 µM
[12] = second compound 3.16 µM, first compound 0.0316 µM
[13] = second compound 3.16 µM, first compound 0.1 µM
[14] = second compound 10 µM, first compound 0.0316 µM
[15] = second compound 10 µM, first compound 0.1 µM
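Note: spheroids exposed to agents for seven days.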
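Throughout, for viability, T/C: 100% = DMSO vehicle control viability.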

Compound: CC[C@@]1(O)C(=O)OCc2c1cc1n(c2=O)Cc2cc3c(CN(C)C)c(O)ccc3nc2-1 + Cc1cncc(-c2nc(NCCc3c[nH]c4ccccc34)c3ncn(C(C)C)c3n2)c1
- IC50 [1]: 34.2 nM
- IC50 [2]: 26.8 nM
- IC50 [3]: 30.1 nM
- IC50 [4]: 47.3 nM
- IC50 [5]: 4.63 nM
- viability, T/C (second compound 0.1 µM, first compound 0.000316 µM): 100%
- viability, T/C (second compound 0.1 µM, first compound 0.001 µM): 86.7%
- viability, T/C (second compound 0.1 µM, first compound 0.00316 µM): 88.2%
- viability, T/C (second compound 0.1 µM, first compound 0.01 µM): 70%
- viability, T/C [6]: 49.5%
- viability, T/C [7]: 40.4%
- viability, T/C (second compound 0.316 µM, first compound 0.000316 µM): 95.4%
- viability, T/C (second compound 0.316 µM, first compound 0.001 µM): 93.2%
- viability, T/C (second compound 0.316 µM, first compound 0.00316 µM): 83%
- viability, T/C (second compound 0.316 µM, first compound 0.01 µM): 72.8%
- viability, T/C [8]: 44.6%
- viability, T/C [9]: 33.7%
- viability, T/C (second compound 1 µM, first compound 0.000316 µM): 106%
- viability, T/C (second compound 1 µM, first compound 0.001 µM): 117%
- viability, T/C (second compound 1 µM, first compound 0.00316 µM): 95%
- viability, T/C (second compound 1 µM, first compound 0.01 µM): 72.3%
- viability, T/C [10]: 51.4%
- viability, T/C [11]: 36.3%
- viability, T/C (second compound 3.16 µM, first compound 0.000316 µM): 112%
- viability, T/C (second compound 3.16 µM, first compound 0.001 µM): 106%
- viability, T/C (second compound 3.16 µM, first compound 0.00316 µM): 91.5%
- viability, T/C (second compound 3.16 µM, first compound 0.01 µM): 77.4%
- viability, T/C [12]: 57.5%
- viability, T/C [13]: 36.2%
- viability, T/C (second compound 10 µM, first compound 0.000316 µM): 55.2%
- viability, T/C (second compound 10 µM, first compound 0.001 µM): 64.4%
- viability, T/C (second compound 10 µM, first compound 0.00316 µM): 54.6%
- viability, T/C (second compound 10 µM, first compound 0.01 µM): 39.3%
- viability, T/C [14]: 34.1%
- viability, T/C [15]: 28.5%

Compound: Nc1ncn(C2CC(O)C(CO)S2)c(=O)n1 (configuration not stated) + CC(CO)NC(=O)c1cc(-c2ccc(Cl)cc2)nn(-c2cnn(C)c2)c1=O
- IC50 [1]: > 300 nM
- IC50 [2]: > 300 nM
- IC50 [3]: > 300 nM
- IC50 [4]: > 300 nM
- IC50 [5]: > 300 nM
- viability, T/C (second compound 0.1 µM, first compound 0.000949 µM): 101%
- viability, T/C (second compound 0.1 µM, first compound 0.003 µM): 117%
- viability, T/C (second compound 0.1 µM, first compound 0.00949 µM): 111%
- viability, T/C (second compound 0.1 µM, first compound 0.03 µM): 103%
- viability, T/C (second compound 0.1 µM, first compound 0.0949 µM): 97.3%
- viability, T/C (second compound 0.1 µM, first compound 0.3 µM): 84.8%
- viability, T/C (second compound 0.316 µM, first compound 0.000949 µM): 106%
- viability, T/C (second compound 0.316 µM, first compound 0.003 µM): 121%
- viability, T/C (second compound 0.316 µM, first compound 0.00949 µM): 134%
- viability, T/C (second compound 0.316 µM, first compound 0.03 µM): 100%
- viability, T/C (second compound 0.316 µM, first compound 0.0949 µM): 104%
- viability, T/C (second compound 0.316 µM, first compound 0.3 µM): 88.1%
- viability, T/C (second compound 1 µM, first compound 0.000949 µM): 119%
- viability, T/C (second compound 1 µM, first compound 0.003 µM): 115%
- viability, T/C (second compound 1 µM, first compound 0.00949 µM): 110%
- viability, T/C (second compound 1 µM, first compound 0.03 µM): 103%
- viability, T/C (second compound 1 µM, first compound 0.0949 µM): 110%
- viability, T/C (second compound 1 µM, first compound 0.3 µM): 84%
- viability, T/C (second compound 3.16 µM, first compound 0.000949 µM): 121%
- viability, T/C (second compound 3.16 µM, first compound 0.003 µM): 101%
- viability, T/C (second compound 3.16 µM, first compound 0.00949 µM): 104%
- viability, T/C (second compound 3.16 µM, first compound 0.03 µM): 121%
- viability, T/C (second compound 3.16 µM, first compound 0.0949 µM): 101%
- viability, T/C (second compound 3.16 µM, first compound 0.3 µM): 96.4%
- viability, T/C (second compound 10 µM, first compound 0.000949 µM): 117%
- viability, T/C (second compound 10 µM, first compound 0.003 µM): 120%
- viability, T/C (second compound 10 µM, first compound 0.00949 µM): 127%
- viability, T/C (second compound 10 µM, first compound 0.03 µM): 127%
- viability, T/C (second compound 10 µM, first compound 0.0949 µM): 116%
- viability, T/C (second compound 10 µM, first compound 0.3 µM): 103%

Compound: Nc1ccccc1NC(=O)c1ccc(CNC(=O)OCc2cccnc2)cc1 + Cc1cncc(-c2nc(NCCc3c[nH]c4ccccc34)c3ncn(C(C)C)c3n2)c1
- IC50 [1]: 2930 nM
- IC50 [2]: 2890 nM
- IC50 [3]: 3060 nM
- IC50 [4]: 2710 nM
- IC50 [5]: 388 nM
- viability, T/C [6]: 85.2%
- viability, T/C [7]: 86.2%
- viability, T/C (second compound 0.1 µM, first compound 0.316 µM): 88.8%
- viability, T/C (second compound 0.1 µM, first compound 1 µM): 61.4%
- viability, T/C (second compound 0.1 µM, first compound 3.16 µM): 52%
- viability, T/C (second compound 0.1 µM, first compound 10 µM): 15.9%
- viability, T/C [8]: 91.1%
- viability, T/C [9]: 85.9%
- viability, T/C (second compound 0.316 µM, first compound 0.316 µM): 84.3%
- viability, T/C (second compound 0.316 µM, first compound 1 µM): 57.2%
- viability, T/C (second compound 0.316 µM, first compound 3.16 µM): 56.6%
- viability, T/C (second compound 0.316 µM, first compound 10 µM): 13.2%
- viability, T/C [10]: 88.3%
- viability, T/C [11]: 86.7%
- viability, T/C (second compound 1 µM, first compound 0.316 µM): 69.3%
- viability, T/C (second compound 1 µM, first compound 1 µM): 65.7%
- viability, T/C (second compound 1 µM, first compound 3.16 µM): 55.6%
- viability, T/C (second compound 1 µM, first compound 10 µM): 13.3%
- viability, T/C [12]: 93%
- viability, T/C [13]: 113%
- viability, T/C (second compound 3.16 µM, first compound 0.316 µM): 88.4%
- viability, T/C (second compound 3.16 µM, first compound 1 µM): 57.7%
- viability, T/C (second compound 3.16 µM, first compound 3.16 µM): 55.4%
- viability, T/C (second compound 3.16 µM, first compound 10 µM): 8.91%
- viability, T/C [14]: 66.7%
- viability, T/C [15]: 46.9%
- viability, T/C (second compound 10 µM, first compound 0.316 µM): 45.3%
- viability, T/C (second compound 10 µM, first compound 1 µM): 44.3%
- viability, T/C (second compound 10 µM, first compound 3.16 µM): 36.6%
- viability, T/C (second compound 10 µM, first compound 10 µM): 4.53%

Compound: O=C(c1cc(Cc2n[nH]c(=O)c3ccccc23)ccc1F)N1CCN(C(=O)C2CC2)CC1
- viability, T/C (compound 0.0316 µM): 107% and 92.7% and 109%
- viability, T/C (compound 0.1 µM): 102% and 99.8% and 95.5%
- viability, T/C (compound 0.316 µM): 96.7% and 98.2% and 106%
- viability, T/C (compound 1 µM): 98.8% and 93.7% and 86.1%
- viability, T/C (compound 3.16 µM): 97.4% and 95.6% and 95.2%
- viability, T/C (compound 10 µM): 86% and 84.6% and 77.5%
- IC50 (curve of compound): > 10000 nM

Source: PubChem BioAssay AID1919000 (Molecular Pharmacology Branch, DTP, NCI, 2023)
